We go through 14 compounds from patent US20240124444A1 (Celgene Corporation, priority 2020, published 2024).

One may read the EC50 as the midpoint of the concentration-response curve.

This assay has as its system C. parvum strain UGA1. Put plainly: C. parvum growth inhibition assay (Nluc luminescence in HCT-8 cells). It is filed as cell-based, Cryptosporidium parvum. As to conditions: Cryptosporidium parvum; for EC50: HCT-8, 48 h, C. parvum growth inhibition in HCT-8 cells, 48 hours, 6 concentrations 10-0.04 μM; for inhibition at 1 µM / inhibition at 10 µM: HCT-8; for inhibition at 1 µM: read-out: % inh @ 1 uM C. parvum; for inhibition at 10 µM: read-out: % inh @ 10 uM C. parvum.

The mark [1] stands for this setting: single point inhibition at 1 uM.
[2] abbreviates: single point inhibition at 10 uM.
Setting [3] is: single point inhibition @ 10 uM.

Read-outs that look alike come from different tables or passages of the source.

`Cc1nccc(-c2cc3cnc(NC(=O)C4CC4)cc3n2C)n1` [Example 100, N-(1-methyl-2-(2-methylpyrimidin-4-yl)-1H-pyrrolo[3,2-c]pyridin-6-yl)cyclopropanecarboxamide] returned an EC50 greater than 1 µM.

The compound `CCc1nccc(-c2cc3cnc(NC4CCOCC4)cc3n2C)n1` [Example 387, 2-(2-ethylpyrimidin-4-yl)-1-methyl-N-(tetrahydro-2H-pyran-4-yl)-1H-pyrrolo[3,2-c]pyridin-6-amine] came in with a concentration for a half-maximal effect (EC50) greater than 1 µM.

With `O=S(=O)(Nc1cc2[nH]c(C(F)(F)F)cc2cn1)C1CC1` [Example 106, N-(2-(trifluoromethyl)-1H-pyrrolo[3,2-c]pyridin-6-yl)cyclopropanesulfonamide], the EC50 is greater than 1 µM.

In turn, `COc1nccc(-c2cc3cnc(NC4CCOCC4)cc3[nH]2)n1` [Example 62, 2-(2-methoxypyrimidin-4-yl)-N-(tetrahydro-2H-pyran-4-yl)-1H-pyrrolo[3,2-c]pyridin-6-amine] showed an EC50 greater than 1 µM.

On to `Cn1cc(C(=O)Nc2cc3[nH]c(-c4ccnc(OC5CC(O)C5)n4)cc3cn2)cn1` (centres unmarked) [Example 324, N-(2-(2-(3-hydroxycyclobutoxy)pyrimidin-4-yl)-1H-pyrrolo[3,2-c]pyridin-6-yl)-1-methyl-1H-pyrazole-4-carboxamide], for which, under setting [1], the inhibition at 1 µM lay within 0 to 33%. Further, the inhibition at 10 µM under setting [2] lay in the range of 0 to 33%.

`CC(C)n1cc(C(=O)Nc2cc3[nH]c(-c4ccnc(NCC(F)(F)F)n4)cc3cn2)cn1` [Example 172, 1-isopropyl-N-(2-(2-(2,2,2-trifluoroethylamino)pyrimidin-4-yl)-1H-pyrrolo[3,2-c]pyridin-6-yl)-1H-pyrazole-4-carboxamide]: for the setting “single point inhibition @ 1 uM”, the inhibition at 1 µM fell in the range of 67 to 100%. For the same compound, under setting [3], the inhibition at 10 µM lay within 67 to 100%.

`Cn1cc(C(=O)Nc2cc3[nH]c(-c4cnc[nH]4)cc3cn2)cn1` [Example 82, N-(2-(1H-imidazol-5-yl)-1H-pyrrolo[3,2-c]pyridin-6-yl)-1-methyl-1H-pyrazole-4-carboxamide] showed an EC50 greater than 1 µM. Besides, the inhibition at 1 µM (single point inhibition @ 1 uM) was 0 to 33%. Further, the inhibition at 10 µM under setting [3] was in the range of 33 to 66%.

As to `CC(C)n1cc(C(=O)Nc2cc3[nH]c(-c4ccnc(OCC(F)(F)F)n4)cc3cn2)cn1` [Example 186, 1-isopropyl-N-(2-(2-(2,2,2-trifluoroethoxy)pyrimidin-4-yl)-1H-pyrrolo[3,2-c]pyridin-6-yl)-1H-pyrazole-4-carboxamide], where the note is “single point inhibition @ 1 uM”, the inhibition at 1 µM lay within 0 to 33%. Further, the inhibition at 10 µM under setting [3] was 67 to 100%.

As to `Cc1cc(Nc2cc3[nH]c(-c4ccnc(C#N)c4)cc3cn2)cc(-n2cncn2)c1` [Example 339, 4-(6-(3-methyl-5-(1H-1,2,4-triazol-1-yl)phenylamino)-1H-pyrrolo[3,2-c]pyridin-2-yl)picolinonitrile], the inhibition at 1 µM under setting [1] is 0 to 33%. The inhibition at 10 µM under setting [2] is 0 to 33%.

`Cc1ccc(-c2cc3cnc(NC4CCOCC4)cc3[nH]2)cc1` [Example 351, N-(tetrahydro-2H-pyran-4-yl)-2-p-tolyl-1H-pyrrolo[3,2-c]pyridin-6-amine] yielded an EC50 greater than 1 µM.

`Cc1cc(-c2[nH]c3cc(NC4CCCCC4)ncc3c2C)ccn1` [Example 369, N-cyclohexyl-3-methyl-2-(2-methylpyridin-4-yl)-1H-pyrrolo[3,2-c]pyridin-6-amine] displayed an EC50 greater than 1 µM.

As to `COc1nccc(-c2cc3cnc(NC(=O)c4cnn(C)c4)cc3n2C)n1` [Example 256, N-(2-(2-methoxypyrimidin-4-yl)-1-methyl-1H-pyrrolo[3,2-c]pyridin-6-yl)-1-methyl-1H-pyrazole-4-carboxamide], the inhibition at 1 µM under setting [1] is 0 to 33%. For the same compound, the inhibition at 10 µM under setting [2] lay in the range of 0 to 33%.

As for `Cc1cc(-c2cc3cnc(NC(=O)[C@H]4C[C@@H](O)C4)cc3[nH]2)ccn1` [Example 194, (1s,3s)-3-hydroxy-N-(2-(2-methypyridin-4-yl)-1H-pyrrolo[3,2-c]pyridin-6-yl)cyclobutanecarboxamide], the inhibition at 1 µM (single point inhibition @ 1 uM) lay within 0 to 33%. In addition, the inhibition at 10 µM under setting [3] was 67 to 100%.

Turning to `COc1nccc(-c2cc3cnc(NC(=O)c4ccc(OC5CCOCC5)cc4)cc3n2C)n1` [Example 188, N-(2-(2-methoxypyrimidin-4-yl)-1-methyl-1H-pyrrolo[3,2-c]pyridin-6-yl)-4-(tetrahydro-2H-pyran-4-yloxy)benzamide], for the setting “single point inhibition @ 1 uM”, the inhibition at 1 µM was in the range of 0 to 33%. Further, the inhibition at 10 µM under setting [3] lay within 67 to 100%.
